Experimental data reported in patent publication US10682352B2, “Compound having mutant IDH inhibitory activity, preparation method and use thereof” (SHANGHAI HAIHE PHARMACEUTICAL CO., LTD., priority 2016, dated 2020).
pIC50: −log10 of the molar value. Like-named read-outs stand apart in the source and are kept apart here.

Experiments:
IDH1 R132H = IDH1 R132H (Homo sapiens (Human), UniProt O75874, R132H); experiment: Effect on the enzyme activity of IDH1 at the molecular level (NADPH consumption, diaphorase/resazurin); assay type: biochemical; conditions: α-KG 1 mM, NADPH 4 μM, 60 min room temperature
IDH1 R132H, sequence (O75874 whole entry R132H): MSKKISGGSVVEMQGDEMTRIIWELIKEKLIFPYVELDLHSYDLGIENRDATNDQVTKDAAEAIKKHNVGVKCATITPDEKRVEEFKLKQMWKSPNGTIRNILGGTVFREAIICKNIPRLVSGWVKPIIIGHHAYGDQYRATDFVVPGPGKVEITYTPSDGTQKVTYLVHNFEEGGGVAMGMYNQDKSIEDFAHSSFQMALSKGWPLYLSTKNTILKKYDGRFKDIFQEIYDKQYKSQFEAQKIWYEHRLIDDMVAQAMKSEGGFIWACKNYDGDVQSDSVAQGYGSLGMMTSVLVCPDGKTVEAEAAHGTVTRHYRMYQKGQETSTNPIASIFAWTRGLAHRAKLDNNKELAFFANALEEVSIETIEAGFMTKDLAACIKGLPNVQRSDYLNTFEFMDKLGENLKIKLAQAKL
Method: The enzyme used in the experiment was purchased from cayman Co.
The substrates α-KG, NADPH and Diaphorase were purchased from Sigma; Resazurin was purchased from J&K; and the remaining reagents were purchased from Sinopharm Chemical Reagent Co., Ltd.
Compound preparation: Compound 12000 g was centrifuged for 5 min, DMSO was added to prepare 10 mM, which was vortexed, then ultrasonic treatment for 10 minutes, and stored at −40° C. The stock solution was diluted firstly with DMSO to a 10 μM solution when tested and then gradient-diluted for 3 times to a different test concentration.
Test method: The enzyme activity of IDH1 to convert α-KG to 2HG was measured by the consumption of NADPH. After the enzymatic reaction was completed, a catalytic excess of diaphorase and reazurin were added, and the resulting fluorescent signal could reflect the amount of remaining NADPH. […] IC50 values were calculated using GraphPad Prism software.

[1] = tested on: fibrosarcoma cell line HT1080; experiment: 2HG inhibition assay on fibrosarcoma cell line HT1080 (LC-MS/MS); assay type: cell-based, Human; conditions: HT-1080 cells, 48 h incubation, read-out: HT1080 2HG Inhibitory IC50
Method: In this experiment, the inhibitory activity of the compounds of the present invention against the 2HG concentration level of fibrosarcoma cell line HT1080 was measured by the following method.
Different concentrations of compounds were added and incubated for 48 h. HT-1080 cells were trypsinized and collected, and centrifuged at 500 g for 5 min. The supernatant was discarded, and the cells were resuspended in 1 ml of PBS and the number of cells per sample was counting by a counter (Beckman coulter Z2, Beckman) and adjusted to be the same. After centrifuged at 500 g for 5 min, the supernatant was discarded, and the cell pellet was stored in a refrigerator at −80° C. for 2HG detection.
Sample Treatment: an ice acetonitrile solution containing 200 μL of verapamil (internal standard) was added to sample tubes respectively, vortexed for 1 min, and placed in a refrigerator at 4° C. for 20 min to lyse the cells. 100 μL of sample was taken, another 100 μL of lysate was taken in a 96-well plate and dried with a nitrogen blower, and 100 μL of water was added and vortexed to be uniform.
1. Derivatization: 100 μL of o-benzylhydroxylamine hydrochloride derivatization reagent was added and shaken on a shaker for 1 h to complete the derivatization reaction.
2. Solution extraction: 300 μL of ethyl acetate was added separately, shaken for 20 min, centrifuged at 1900 rpm for 5 min, and placed in a refrigerator at −70° C. for 40 min. All the ethyl acetate was taken up to another sample plate, and dried with a nitrogen blower. 150 μL MEOH/H2O (v/v, 1/1) was added for reconstitution.
3. Bioanalysis: All of the above samples were analyzed by LC-MS/MS (Waters ACQUITY H-Class System, Waters/AB6500, Sciex) after centrifuged at 4000 rpm for 10 min.
The inhibition rate of the sample was obtained by the following formula: […]
IC50 values were calculated using GraphPad Prism software.

SMILES: CC(C)[C@H]1C(C)NC(=O)N1c1ccnc(N[C@@H](C)c2cn(-c3ccc(Cl)cc3)cn2)n1 (single isomer, unassigned) [Compound 86]
- pIC50 (IDH1 R132H): > 7.00
- pIC50 [1]: 7.18

SMILES: CC(C)[C@H]1C(C)NC(=O)N1c1ccnc(N[C@@H](C)c2cn(-c3ccc(Cl)cc3)cn2)n1 (single isomer, unassigned) [Compound 87]
- pIC50 (IDH1 R132H): > 7.00
- pIC50 [1]: 7.54

SMILES: CC(C)[C@H]1C(C)N(C)C(=O)N1c1ccnc(N[C@@H](C)c2cn(-c3ccc(Cl)cc3)cn2)n1 (single isomer, unassigned) [Compound 90]
- pIC50 (IDH1 R132H): > 7.00
- pIC50 ([1]; Homo sapiens, HT-1080, 48 h): 7.62

SMILES: CC(C)[C@H]1C(C)N(C)C(=O)N1c1ccnc(N[C@@H](C)c2cn(-c3ccc(Cl)cc3)cn2)n1 (single isomer, unassigned) [Compound 91]
- pIC50 (IDH1 R132H): > 7.00
- pIC50 [1]: 7.92

SMILES: CC(C)[C@H]1C(C)NC(=O)N1c1ccnc(N[C@@H](C)c2cn(-c3ccc(C(F)(F)F)cc3)cn2)n1 (single isomer, unassigned) [Compound 92]
- pIC50 (IDH1 R132H): > 7.00
- pIC50 ([1]; Homo sapiens, HT-1080, 48 h): 7.48

SMILES: CC(C)[C@H]1C(C)NC(=O)N1c1ccnc(N[C@@H](C)c2cn(-c3ccc(C(F)(F)F)cc3)cn2)n1 (single isomer, unassigned) [Compound 93]
- pIC50 (IDH1 R132H): > 7.00
- pIC50 [1]: 7.46

SMILES: CC(C)[C@H]1C(C)N(C)C(=O)N1c1ccnc(N[C@@H](C)c2cn(-c3ccc(C(F)(F)F)cc3)cn2)n1 (single isomer, unassigned) [Compound 94]
- pIC50 (IDH1 R132H): > 7.00
- pIC50 ([1]; Homo sapiens, HT-1080, 48 h): > 8.00

SMILES: CC(C)[C@H]1C(C)N(C)C(=O)N1c1ccnc(N[C@@H](C)c2cn(-c3ccc(C(F)(F)F)cc3)cn2)n1 (single isomer, unassigned) [Compound 95]
- pIC50 (IDH1 R132H): > 7.00
- pIC50 [1]: > 8.00

SMILES: N#Cc1ccnc(N2C(=O)CC[C@H]2C(=O)N(c2cncc(F)c2)[C@H](C(=O)NC2CC(F)(F)C2)c2ccccc2Cl)c1 [AG120, reference compound]
- pIC50 ([1]; Homo sapiens): 7.52

SMILES: CC(C)[C@H]1CN(C)C(=O)N1c1ccnc(N[C@@H](C)c2cn(-c3ccc(Cl)cc3)cn2)n1 [Compound 17, (S)-3-(2-(((S)-1-(1-(4-chlorophenyl)-1H-imidazol-4-yl)ethyl)amino)pyrimidin-4-yl)-4-isopropyl-1-methylimidazolidine-2-one]
- pIC50 ([1]; Homo sapiens, HT-1080, 48 h): 7.89

SMILES: CC(C)[C@H]1CN(C)C(=O)N1c1ccnc(NC2(c3cn(-c4cc(Cl)cc(Cl)c4)cn3)CC2)n1 [Compound 26, (S)-3-(2-((1-(1-(3,5-dichlorophenyl)-1H-imidazol-4-yl)cyclopropyl)amino)pyrimidin-4-yl)-4-isopropyl-1-methylimidazolidine-2-one]
- pIC50 ([1]; Homo sapiens, HT-1080, 48 h): 7.57

SMILES: CC(C)c1cccc(-n2cnc(C3(Nc4nccc(N5C(=O)N(C)C[C@@H]5C(C)C)n4)CC3)c2)c1 [Compound 30, (S)-3-(2-((1-(1-(3-isopropylphenyl)-1H-imidazol-4-yl)cyclopropyl)amino)pyrimidin-4-yl)-4-isopropyl-1-methylimidazolidne-2-one]
- pIC50 ([1]; Homo sapiens, HT-1080, 48 h): 7.82

SMILES: CC(C)[C@H]1CN(C)C(=O)N1c1ccnc(NC2(c3cn(-c4cccc(C5CC5)c4)cn3)CC2)n1 [Compound 34]
- pIC50 ([1]; Homo sapiens, HT-1080, 48 h): 7.80

SMILES: COc1cc(Cl)cc(-n2cnc(C3(Nc4nccc(N5C(=O)N(C)C[C@@H]5C(C)C)n4)CC3)c2)c1 [Compound 38, (S)-3-(2-((1-(1-(3-chloro-5-methoxyphenyl)-1H-imidazol-4-yl)cyclopropyl)amino)pyrimidin-4-yl)-4-isopropyl-1-methylimidazolidine-2-one]
- pIC50 ([1]; Homo sapiens, HT-1080, 48 h): 7.85

SMILES: [2H]C1([2H])NC(=O)N(c2ccnc(N[C@@H](C)c3cn(-c4ccc(C(F)(F)F)cc4)cn3)n2)[C@H]1C(C)C [Compound 83, (S)-1-(2-(((S)-1-(1-(4-(trifluoromethyl)phenyl)-1H-imidazol-4-yl)ethyl)amino)pyrimidin-4-yl)-4,4-dideutero-5-isopropylimidazolidine-2-one]
- pIC50 ([1]; Homo sapiens, HT-1080, 48 h): 8.00

SMILES: [2H]C([2H])([2H])N1C(=O)N(c2ccnc(N[C@@H](C)c3cn(-c4ccc(Cl)cc4)cn3)n2)[C@@H](C(C)C)C1([2H])[2H] [Compound 89, (S)-3-(2-(((S)-1-(1-(4-chlorophenyl)-1H-imidazol-4-yl)ethyl)amino)pyrimidin-4-yl)-5,5-dideutero-4-isopropyl-1-deuteromethylimidazolidine-2-one]
- pIC50 ([1]; Homo sapiens, HT-1080, 48 h): 7.41

SMILES: CC(C)[C@@H]1N(c2ccnc(N[C@@H](C)c3cn(-c4ccc(C(F)(F)F)cc4)cn3)n2)C(=O)NC1(C)C [Compound 101]
- pIC50 ([1]; Homo sapiens, HT-1080, 48 h): 7.70

SMILES: CC(C)[C@@H]1N(c2ccnc(N[C@@H](C)c3cn(-c4ccc(C(F)(F)F)cc4)cn3)n2)C(=O)N(C)C12CC2 [Compound 103, (S)-7-isopropyl-4-methyl-6-(2-(((S)-1-(1-(4-(trifluoromethyl)phenyl)-1H-imidazole-4-yl) Ethyl)amino)-4-yl)-4,6-diazaspiro[2.4]hept-5-one]
- pIC50 (IDH1 R132H): 6.00 to 7.00

SMILES: [2H]C1([2H])[C@H](C(C)C)N(c2ccnc(N[C@@H](C)c3cc(C)c(-c4ccnc(C(F)(F)F)c4)cn3)n2)C(=O)N1C [Compound 109]
- pIC50 (IDH1 R132H): 6.00 to 7.00

SMILES: CC(C)[C@H]1CN(C)C(=O)N1c1ccnc(NC2(c3ccc(-c4ccnc(C(F)(F)F)c4)cn3)CC2)n1 [Compound 113]
- pIC50 (IDH1 R132H): 6.00 to 7.00
